These results are taken from US6521640B1, “Method for interviewing neuronal death using sulfasalazine” (Neurotech Co., Ltd., priority 2000, dated 2003).

Data set [1] concerns cocultures of mouse cortical neurons and glia. As to the kind of experiment: NMDA-induced neuronal death (LDH efflux) in cortical cell cultures. The data set is classed as cell-based. As to conditions: for NMDA neurotoxicity (neuronal death 24 hr later): 300 μM NMDA for 10 min. The procedure:
FIG. 2 is a graph plotting a dose-response effect of sulfasalazine against neuronal death 24 hr following a brief exposure to 300 μM NMDA. Cocultures of mouse cortical neurons and glia (DIV 12-14) were exposed to 300 μM NMDA for 10 min, alone or with inclusion of 10-1000 μM sulfasalazine. Neuronal death was analyzed by measuring LDH efflux into the bathing medium 24 hr later, mean ± S.E.M. (n−8−16 cultrues per condition), scaled to the mean LDH value corresponding to the near-complete neuronal death induced by 24 hr exposure to 500 μM NMDA (=100%). Asterisk indicates significant difference from relevant control (NMDA alone), at ρ<0.05 using ANOVA and Student-Neuman-Keuls' test.
FIG. 3 is a graph plotting neuroprotective effects of sulfasalazine against dose-dependent neurotoxicity by NMDA. Cortical cell cultures were exposed to 30-1000 μM NMDA for 10 min, alone or in the presence of 300 or 1000 μM sulfasalazine. Neuronal death was analyzed by measuring LDH efflux into the bathing medium 24 hr later, mean ± S.E.M. (n=8−16 cultures per condition). Asterisk indicates significant difference from relevant control (NMDA alone), at ρ<0.05 using ANOVA and Student-Neuman-Keuls' test.
(§1) Primary cortical cell cultrues from embryonic mice were prepared and used to examine neuroprotective action of compounds. Mouse cortical cell culture system has been extensively used to study mechanisms and pharmacological intervention of neuronal death in neurological diseases. In brief, mouse cerebral coritces were removed from brains of the 15 day—old—fetal mice, in accordance with a protocol approved by our institutional animal care committee. The neocortices were gently triturated and plated on 24 well plates (5 hemispheres/plate) precoated with 100 μg/ml poly-D-lysine and 4 μg/ml laminine. […]
(§2) Overall cell injury was assessed microscopically under phase-contrast optics or by measuring amount of lactate dehydrogenase (LDH) released into the bathing medium 24 hr after neurotoxic insults as previously described (Koh and Choi, J Neurosci Methods 20:83-90, 1987). […]

In a further data set the test system is cortical neurons. As to the kind of experiment: NMDA-induced accumulation of intracellular free Ca2+ (fluo-3). The class given is cell-based, mouse. Conditions: 300 μM NMDA; 300 μM sulfasalazine. The procedure:
FIG. 4 is a graph plotting effects of sulfasalazine against NMDA-induced accumulation of intracellular free Ca^2+. […] [Ca^2+], was analyzed in fluo-3-loaded neutrons immediately after treatment, mean ± S.E.M. (n÷55−94 randomly chosen neurons in 4-6 glass bottom dishes per condition), scaled to [Ca^2+], after the sham control (÷100%). Asterisk indicates significant difference from relevant control (NMDA alone), at ρ<0.05 using ANOVA and Student-Neuman-Keuls' test.
as §1
Levels of intracellular free Ca^2+ ([Ca^2+]i) were analyzed using a Ca^2+ sensitive indicator flou-3 under a fluorescence microphotometry (Minta A. Kao J P. Tsien R Y. 1989, J Bio Chem. 264:8171-8178). […] The fluroescence images were analyzed using a QuantiCell 700 system (Applied Imaging, England).

The subject of data set [2] is cortical cell cultures. As to the kind of experiment: NMDA-induced 45Ca2+ uptake. The class given is cell-based, mouse. Conditions: for 45Ca2+ influx after NMDA: 300 μM NMDA, 10 min. The procedure:
FIG. 5 is a graph plotting effects of sulfasalazine against NMDA-induced ^45Ca^2+ uptake. Cortical cell cultrues (DIV 12-14) were exposed to a sham wash (control) or 300 μM NMDA, alone or in the presence of 30-1000 μM sulfasalazine. Ca^2+ influx was analyzed 10 min later by measuring ^45Ca^2+ influx, mean ± S.E.M. (n=12 cultures per condition). Asterisk indicates significant difference from relevant control (NMDA alone), at ρ<0.05 using ANOVA and Student-Neuman-Keuls' test.
Primary cortical cell cultrues from embryonic mice were prepared and used to examine neuroprotective action of compounds. Mouse cortical cell culture system has been extensively used to study mechanisms and pharmacological intervention of neuronal death in neurological diseases. In brief, mouse cerebral coritces were removed from brains of the 15 day—old—fetal mice, in accordance with a protocol approved by our institutional animal care committee. The neocortices were gently triturated and plated on 24 well plates (5 hemispheres/plate) precoated with 100 μg/ml poly-D-lysine and 4 μg/ml laminine. Plating media consist of Eagles minimal essential media (MEM, Earles salts, supplied glutamine-free) supplemented with 5% horse serum, 5% fetal bovine serum, 2 mM glutamine, and 21 mM glucose. Cultures were maintained at 37° C. in a humidified 5% CO2 atmosphere. After 7 days in vitro (DIV 7), cultures were shifted into a growth medium identical to the plating medium but lacking fetal serum. At DIV 7-9, […] cytosine arabinofuranoside was included to halt overgrowth of glia. Mixed cultures of neurons and glia were then fed twice a week.
To analyze Ca^2+ uptake, cortical cell cultures (DIV 13-14) were added with 300 μM NMDA and 1.5 μCi ^45Ca^2+ for 10 min, washed thoroughly with HCSS, and lysed in 0.2% SDS. Levels of ^45Ca^2+ in the lysates were read in a Beckman Scintillation counter.

In data set [3] the test system is cocultures of cortical neurons and glia. Put plainly: Fe2+-induced free radical neuronal death (LDH). The class given is cell-based, mouse. Conditions: 50 μM Fe2+; 30-300 μM sulfasalazine concurrent. The procedure: FIG. 6 is a graph plotting a dose-response effect of sulfasalazine against neuronal death following 24 hr-exposure to 50 μM Fe^2+. […] Neuronal death was assessed 24 hr later by measurement of LDH released into the bathing medium, means ± S.E.M. (n=4 12 culture wells per condition). Asterisk indicates significant difference from relevant control (Fe^2+ alone) at ρ<0.05, using ANOVA and Student-Neuman-Keuls' test.
as §1, §2

Data set [4] has the same test system. Put plainly: BSO-induced free radical neuronal death (LDH). The data set is classed as cell-based, mouse. As to conditions: 10 mM BSO; 30-300 μM sulfasalazine concurrent. How it is done:
FIG. 7 is a graph plotting a dose-response effect of sulfasalazine against neuronal death following 24 hr-exposure to 10 mM BSO. Cortical cell cultures (DIV 12-14) were exposed to 10 mM L-buthionine-(S,R)-sulfoximine (BSO), alone or with 30-300 μM sulfasalazine. Neuronal death was assessed 24 hr later by measurement of LDH released into the bathing medium, mean ± SEM (n=8 culture wells per condition). Asterisk indicates significant difference from relevant control (BSO alone) at ρ<0.05, using ANOVA and Student-Neuman-Keuls' test.
as §1, §2

Data set [5] deals with cortical cell cultures. Put plainly: Fe2+-induced production of reactive oxygen species (DCDHF fluorescence). The data set is classed as cell-based, mouse. How it is done:
FIG. 8 is a graph plotting effects of sulfasalazine against Fe^2+-induced production of reactive oxygen species. Cortical cell cultures (DIV 13-14) were exposed to a sham wash (control) or 50 μM Fe^2+, alone or with 100 μM sulfasalazine for the indicated points of time. Levels of ROS in neurons were analyzed by monitoring the fluorescent signal of oxidized DCDHF, mean ± S.E.M. (n=53−80 neurons randomly chosen under a phase-contrast optic). Asterisk indicates significant difference from the relevant control (Fe^2+ alone in each time point) at ρ<0.05 using ANOVA and Student-Neuman-Keuls' test.
Primary cortical cell cultrues from embryonic mice were prepared and used to examine neuroprotective action of compounds. […]
To analyze reactive oxygen species in cortical cells, cortical cultures were loaded with 10 μM 6-carboxy-2′,7′-dichlorodihydrofluorescein diacetate (DCDHF-DA) plus 2% Pluronic F-127 in HCSS solution containing (120 mM NaCl, 5 mM KCl, 1.6 mM MgCl2, 2.3 mM CaCl2, 15 mM Glucose, 20 mM HEPES, 10 mM NaOH) for 20 minutes at 37° C., washed three times with HCSS solution, and the fluorescence signal of DCF (Ex 1=488 nm, Em 1=510 nm), the oxidation product of DCDHF-DA, was analyzed on the stage of a Nikon Diaphot inverted microscope equipped with a 100W Xenon lamp and a Nikon 20X, 0.4 N.A. objective.

Data set [6] deals with cortical cell cultures. As to the kind of experiment: Zn2+ neurotoxicity (LDH). Conditions: 300 μM Zn2+ for 30 min; 10-100 μM sulfasalazine concurrent. The data set is classed as cell-based, mouse. How it is done:
FIG. 9 is a graph plotting a dose-response effect of sulfasalazine against neuronal death 24 hr following exposure to 300 μM Zn^2+ for 30 min. Cortical cell cultures were exposed to 30-500 μM Zn^2+ for 30 min, alone (filled circles) or with inclusion of 100 μM sulfasalazine (open circles). Neuronal death was assessed 24 hr later by measurement of LDH released into the bathing medium, mean ± SEM (n=8 culture wells per condition). Asterisk indicates significant difference from relevant control (Zn^2+ alone) at ρ<0.05, using ANOVA and Student-Neuman-Keuls' test.
(§3) Primary cortical cell cultrues from embryonic mice were prepared and used to examine neuroprotective action of compounds. Mouse cortical cell culture system has been extensively used to study mechanisms and pharmacological intervention of neuronal death in neurological diseases. In brief, mouse cerebral coritces were removed from brains of the 15 day—old—fetal mice, in accordance with a protocol approved by our institutional animal care committee. […]
as §2

For data set [7], the system named is cortical cell cultures. As to the kind of experiment: Zn2+ entry into cortical cells (TSQ fluorescence). The class given is cell-based, mouse. The procedure:
FIG. 10 is a graph plotting effects of sulfasalazine reducing Zn^2 entry into cortical cells. Sister cultures were exposed to 300 μM Zn^2+ for 30 min, alone or with inclusion of 30-300 μM sulfasalazine. Zn^2+ entry was assessed 30 min later by measuring fluorescence intensity of TSQ, a Zn^2+ chelating agent. (n=8 culture wells per condition). Asterisk indicates significant difference from relevant control (Zn^2 alone) at ρ<0.05, using ANOVA and Student-Neuman-Keuls' test.
as §3
Entry and accumulation of Zn^2+ into neurons were analyzed using TSQ (N-(6-methoxy-8-quinolyl)-p-toluene sulfonamide), a membrane-permeable Zn^2+-chelating dye (Weiss J H, Hartley D M, Koh J Y, Choi D W, 1993, Neuron, 10:43-49). Cultures were incubated in HCSS containing 0.01% TSQ for 5 min, observed under fluorescence microscopy with a UV filter (excitation 365 nm, dichroic 400 nm, barrier 450 nm), and the intensity of TSQ was analyzed using a fluorescence plate reader.

Data set [8] relates to cortical cell cultures. As to the kind of experiment: Neuronal death after oxygen and glucose deprivation (LDH). Conditions: 300 μM sulfasalazine. The data set is classed as cell-based, mouse. How it is done:
FIG. 11 is a graph plotting neuroprotective effects of sulfasalazine against deprivation of oxygen and glucose. Cortical cell cultures (DIV 14) were deprived of oxygen and glucose (OGD) for 45, 60 or 90 min, alone (black bars) or with inclusion of 300 μM sulfasalazine (gray bars). Neuronal death was assessed 24 hr later by measurement of LDH released into the bathing medium, mean ± SEM (n=4 culture wells per condition). Asterisk indicates significant difference from relevant control (OGD alone) at ρ<0.05, using ANOVA and Student-Neuman-Keuls' test.
Primary cortical cell cultrues from embryonic mice were prepared and used to examine neuroprotective action of compounds. Mouse cortical cell culture system has been extensively used to study mechanisms and pharmacological intervention of neuronal death in neurological diseases. […]
Oxygen or glucose deprivation: cortical cell cultures (DIV 15-17) were transferred to an anacrobic chamber containing 5% CO2, 10% H2, and 85% N2 as described before (Gwag B J, Lobner D, Koh J Y, Wie M B, and Choi D W, 1995, Neuroscience, 68:615-619). […] Neuronal injury was quantified 24 hr later.
as §2

The conditions of data set [9]: man, 3-5 hrs after oral ingestion of a single 4 g dose; cited from earlier work.

In the case of `O=C(O)c1cc(/N=N/c2ccc(S(=O)(=O)Nc3ccccn3)cc2)ccc1O` [sulfasalazine], the “NMDA neurotoxicity (neuronal death 24 hr later)” value is recorded as “completely blocked” in data set [1] (1 mM sulfasalazine) and “partially reduced” in data set [1] (100-300 μM sulfasalazine concurrent). Besides, the “neuroprotective effects with increasing doses of NMDA” value in data set [1] (NMDA up to 1 mM for 10 min, 300 or 1000 μM sulfasalazine) was “did not interfere with the neuroprotective effects”. In addition, the “NMDA-induced accumulation of [Ca2+]i” value in the data set on cortical neurons was “markedly reduced”. Further, the “45Ca2+ influx after NMDA” value is “partially reduced” in the data set with cortical cell cultures [2] (300 μM sulfasalazine) and “completely blocked” in the data set on cortical cell cultures [2] (1000 μM sulfasalazine). In addition, the “doses preventing influx and accumulation of Ca2+” value in the data set with cortical cell cultures [2] (summary statement) is 30-1,000 μM. Besides, the “neuronal death 24 hr following continuous exposure to Fe2+” value in [3] is “dose-dependently reduced”. Further, the “neuronal death 24 hr following continuous exposure to BSO” value in data set [4] was “dose-dependently reduced”. In addition, the “production of ROS following exposure to Fe2+” value with cortical cell cultures [5] (50 μM Fe2+, 100 μM sulfasalazine) is recorded as “reduced production of ROS”. The “doses scavenging reactive oxygen species” value with cortical cell cultures [5] (summary statement) lay in the range of 3 to 100 µM. The “Zn2+ neurotoxicity” value in the data set with cortical cell cultures [6] is recorded as “reduced Zn^2+ neurotoxicity in a dose-dependent manner”. Moreover, in the data set with cortical cell cultures [7] (300 μM Zn2+ for 30 min, 300 μM sulfasalazine), the “Zn2+ entry” value is listed as “slightly but significantly reduced”. Besides, the “doses preventing influx and accumulation of Zn2+” value with cortical cell cultures [7] (summary statement) was 30-1,000 μM. Besides, the “neuroprotective effects after prolonged deprivation of oxygen and glucose” value in the data set with cortical cell cultures [8] (OGD extended to 90 min) is reported as “decreased”. Further, the “neuronal death following deprivation of oxygen and glucose” value with cortical cell cultures [8] (OGD for 45-60 min) is recorded as “markedly reduced”. Further, in [9], the serum concentrations result is on record as “approximately 500 μM”.
